From the supplement of paper PMC11208160 come the findings set out here.

A short description of the series: recombinant barcode read abundance after kanamycin selection (control-corrected) (log10(CPM+1)); higher = more efficient recombination; sequences stand for … in AGTGCAGAGAAAATCGGCCAGTTTTCTCTGCCTGCAGTCCGCATGCCGT…AGATTTATGCAGCGGACTGCCTTTCTCCCAAAGTGATAAACCGGACAGTATCATGGACCGGTTTTCCCGGTAATCCGTATTTGCAAGGTTGGTTTCACT; site = the 11-nt target. The gist of the method:
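This pooled E. coli screen matched targets with IS621 bridge RNA target-binding loops. Plating was done in duplicate on chloramphenicol/ampicillin LB agar as a control and on chloramphenicol/ampicillin/kanamycin plus 0.1 mM IPTG. Recombination efficiency reflects barcode counts at recombinant junctions as counts per million, averaged and control-corrected. The figures are log10(CPM+1).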
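Note: IS621 recombinase and bridge RNA in Escherichia coli cells.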

“ATATCGTCTTGGGTTCTAACCTGTTGCCT (site ATATCGTCTAG)”: the “recombinant barcode read abundance (log10)” value was found to be 1.61.

Regarding “ATATCGTCTTGGGTTCTAACCTGTTGCCT (site CTATCGTCTAG)”, the “recombinant barcode read abundance (log10)” value amounted to 0.0269.

Consider “ATATGCGCTTGGGTTCTAACCTGTTGCCG (site ATATGAGCTCG)”, for which the “recombinant barcode read abundance (log10)” value worked out at 0.108.

Regarding “ATATGCGCTTGGGTTCTAACCTGTTGCCG (site ATATGCGCTCG)”, the “recombinant barcode read abundance (log10)” value is 1.43.

In the case of “ATATGCGCTTGGGTTCTAACCTGTTGCCG (site ATATGGGCTCG)”, the “recombinant barcode read abundance (log10)” value stood at 0.0781.

Regarding “ATATGCGCTTGGGTTCTAACCTGTTGCCG (site ATATGTGCTCG)”, the “recombinant barcode read abundance (log10)” value is 0.262.

For the sequence “ATATGTACTTGGGTTCTAACCTGTTGCAG (site ATACGGACTCT)”, the “recombinant barcode read abundance (log10)” value came to 0.

As for “ATATGTACTTGGGTTCTAACCTGTTGCAG (site ATATGTACTCT)”, the “recombinant barcode read abundance (log10)” value turned out to be 2.1.

In the case of “ATATGTGCTTGGGTTCTAACCTGTTGCCG (site ATATGAGCTCG)”, the “recombinant barcode read abundance (log10)” value is 0.0211.

In the case of “ATATGTGCTTGGGTTCTAACCTGTTGCCG (site ATATGCGCTCG)”, the “recombinant barcode read abundance (log10)” value was 0.0242.

As for “ATATGTGCTTGGGTTCTAACCTGTTGCCG (site ATATGGGCTCG)”, the “recombinant barcode read abundance (log10)” value came out at 0.108.

Consider “ATATGTGCTTGGGTTCTAACCTGTTGCCG (site ATATGTGCTCG)”, for which the “recombinant barcode read abundance (log10)” value was determined as 1.71.

On to “ATCAAGACTTGGGTTCTAACCTGTTGCCT (site ATAAAGACTAG)”, for which the “recombinant barcode read abundance (log10)” value is 0.266.

In the case of “ATCAAGACTTGGGTTCTAACCTGTTGCCT (site ATCAAGACTAG)”, the “recombinant barcode read abundance (log10)” value came to 1.42.

Consider “ATCAAGACTTGGGTTCTAACCTGTTGCCT (site ATGAAGACTAG)”, for which the “recombinant barcode read abundance (log10)” value is 0.252.

In the case of “ATCAAGACTTGGGTTCTAACCTGTTGCCT (site ATTAAGACTAG)”, the “recombinant barcode read abundance (log10)” value is 0.272.

For “ATCACACCTTGGGTTCTAACCTGTTGCCT (site ATCACACCTAG)”, the “recombinant barcode read abundance (log10)” value was 0.761.

Regarding “ATCACACCTTGGGTTCTAACCTGTTGCCT (site CTCACACCTAG)”, the “recombinant barcode read abundance (log10)” value was determined as 0.102.

Consider “ATCACGTCTTGGGTTCTAACCTGTTGCCT (site ATCACGTCTAG)”, for which the “recombinant barcode read abundance (log10)” value stood at 1.4.

“ATCACGTCTTGGGTTCTAACCTGTTGCCT (site CAGCATCCTCT)”: the “recombinant barcode read abundance (log10)” value is 0.0385.

As for “ATCAGTTCTTGGGTTCTAACCTGTTGCTG (site ATCAGTTCTCA)”, the “recombinant barcode read abundance (log10)” value worked out at 0.074.

On to “ATCAGTTCTTGGGTTCTAACCTGTTGCTG (site GATTTCGCTAG)”, for which the “recombinant barcode read abundance (log10)” value was found to be 0.155.

Consider “ATCCAACCTTGGGTTCTAACCTGTTGCCT (site ATCCAACCTAG)”, for which the “recombinant barcode read abundance (log10)” value stood at 1.89.

As to “ATCCAACCTTGGGTTCTAACCTGTTGCCT (site ATCCACCCTAG)”, the “recombinant barcode read abundance (log10)” value amounted to 0.123.

“ATCCAACCTTGGGTTCTAACCTGTTGCCT (site ATCCAGCCTAG)”: the “recombinant barcode read abundance (log10)” value was 0.348.

In the case of “ATCCAACCTTGGGTTCTAACCTGTTGCCT (site ATCCATCCTAG)”, the “recombinant barcode read abundance (log10)” value is 0.0128.

For the sequence “ATCCACCCTTGGGTTCTAACCTGTTGCCT (site ATCCAACCTAG)”, the “recombinant barcode read abundance (log10)” value was 0.15.

For “ATCCACCCTTGGGTTCTAACCTGTTGCCT (site ATCCACCCTAG)”, the “recombinant barcode read abundance (log10)” value is 2.07.

As for “ATCCACCCTTGGGTTCTAACCTGTTGCCT (site ATCCAGCCTAG)”, the “recombinant barcode read abundance (log10)” value stood at 0.207.

Consider “ATCCACCCTTGGGTTCTAACCTGTTGCCT (site ATCCATCCTAG)”, for which the “recombinant barcode read abundance (log10)” value is 0.0749.

Turning to “ATCCACCCTTGGGTTCTAACCTGTTGCGG (site ATCCACCCTCC)”, the “recombinant barcode read abundance (log10)” value stood at 3.07.

As to “ATCCACCCTTGGGTTCTAACCTGTTGCGG (site GACCACCCTCC)”, the “recombinant barcode read abundance (log10)” value stood at 0.218.

As to “ATCCATCCTTGGGTTCTAACCTGTTGCCT (site ATCCAACCTAG)”, the “recombinant barcode read abundance (log10)” value stood at 0.00851.

Consider “ATCCATCCTTGGGTTCTAACCTGTTGCCT (site ATCCACCCTAG)”, for which the “recombinant barcode read abundance (log10)” value was determined as 0.0821.

“ATCCATCCTTGGGTTCTAACCTGTTGCCT (site ATCCAGCCTAG)”: the “recombinant barcode read abundance (log10)” value was found to be 0.0583.

“ATCCATCCTTGGGTTCTAACCTGTTGCCT (site ATCCATCCTAG)”: the “recombinant barcode read abundance (log10)” value worked out at 0.969.

Regarding “ATCCCATCTTGGGTTCTAACCTGTTGCCT (site ATACCATCTAG)”, the “recombinant barcode read abundance (log10)” value amounted to 0.383.

Regarding “ATCCCATCTTGGGTTCTAACCTGTTGCCT (site ATCCCATCTAG)”, the “recombinant barcode read abundance (log10)” value was 0.619.

Turning to “ATCCCATCTTGGGTTCTAACCTGTTGCCT (site ATGCCATCTAG)”, the “recombinant barcode read abundance (log10)” value turned out to be 0.0333.

For the sequence “ATCCCATCTTGGGTTCTAACCTGTTGCCT (site ATTCCATCTAG)”, the “recombinant barcode read abundance (log10)” value is 0.0512.

With “ATCCCCTCTTGGGTTCTAACCTGTTGCCT (site ATCCCCTCTAG)”, the “recombinant barcode read abundance (log10)” value came out at 2.53.

With “ATCCCCTCTTGGGTTCTAACCTGTTGCCT (site ATCGCCTCTAG)”, the “recombinant barcode read abundance (log10)” value came out at 0.031.

Regarding “ATCGAGTCTTGGGTTCTAACCTGTTGCCT (site AACGAGTCTAG)”, the “recombinant barcode read abundance (log10)” value was 0.139.

As for “ATCGAGTCTTGGGTTCTAACCTGTTGCCT (site ACCGAGTCTAG)”, the “recombinant barcode read abundance (log10)” value is 1.11.

Take “ATCGAGTCTTGGGTTCTAACCTGTTGCCT (site AGCGAGTCTAG)”: the “recombinant barcode read abundance (log10)” value is 0.734.

Take “ATCGAGTCTTGGGTTCTAACCTGTTGCCT (site ATCGAGTCTAG)”: the “recombinant barcode read abundance (log10)” value stood at 1.56.

“ATCGATGCTTGGGTTCTAACCTGTTGCCT (site ATCGATGCTAG)”: the “recombinant barcode read abundance (log10)” value turned out to be 0.545.

Consider “ATCGATGCTTGGGTTCTAACCTGTTGCCT (site ATCTATTCTAG)”, for which the “recombinant barcode read abundance (log10)” value was 0.0828.

For the sequence “ATCGCCTCTTGGGTTCTAACCTGTTGCCT (site ATCCCCTCTAG)”, the “recombinant barcode read abundance (log10)” value worked out at 0.328.

For the sequence “ATCGCCTCTTGGGTTCTAACCTGTTGCCT (site ATCGCCTCTAG)”, the “recombinant barcode read abundance (log10)” value worked out at 0.742.

Regarding “ATCGGAGCTTGGGTTCTAACCTGTTGCGG (site ATCGGAGCTCA)”, the “recombinant barcode read abundance (log10)” value amounted to 0.135.

Turning to “ATCGGAGCTTGGGTTCTAACCTGTTGCGG (site ATCGGAGCTCC)”, the “recombinant barcode read abundance (log10)” value was determined as 1.7.

Turning to “ATCGGAGCTTGGGTTCTAACCTGTTGCGG (site ATCGGAGCTCG)”, the “recombinant barcode read abundance (log10)” value turned out to be 0.424.

With “ATCGGAGCTTGGGTTCTAACCTGTTGCGG (site ATCGGAGCTCT)”, the “recombinant barcode read abundance (log10)” value stood at 0.592.

Consider “ATCGTATCTTGGGTTCTAACCTGTTGCGC (site ATCGTATCTGC)”, for which the “recombinant barcode read abundance (log10)” value came to 0.068.

“ATCGTATCTTGGGTTCTAACCTGTTGCGC (site GGGCAGGCTAG)”: the “recombinant barcode read abundance (log10)” value amounted to 0.832.

“ATCTCAACTTGGGTTCTAACCTGTTGCCT (site ACCTTAACTAG)”: the “recombinant barcode read abundance (log10)” value was determined as 0.0254.

For “ATCTCAACTTGGGTTCTAACCTGTTGCCT (site ATCTCAACTAG)”, the “recombinant barcode read abundance (log10)” value worked out at 0.118.

As to “ATCTTACCTTGGGTTCTAACCTGTTGCCG (site ATCTTACCTCG)”, the “recombinant barcode read abundance (log10)” value came to 0.448.

Regarding “ATCTTACCTTGGGTTCTAACCTGTTGCCG (site GTCTTCCCTCG)”, the “recombinant barcode read abundance (log10)” value stood at 0.11.

As to “ATCTTATCTTGGGTTCTAACCTGTTGCCT (site ATCTTAACTAG)”, the “recombinant barcode read abundance (log10)” value stood at 0.0526.

With “ATCTTATCTTGGGTTCTAACCTGTTGCCT (site ATCTTACCTAG)”, the “recombinant barcode read abundance (log10)” value was determined as 0.262.

Take “ATCTTATCTTGGGTTCTAACCTGTTGCCT (site ATCTTAGCTAG)”: the “recombinant barcode read abundance (log10)” value is 0.0977.

As for “ATCTTATCTTGGGTTCTAACCTGTTGCCT (site ATCTTATCTAG)”, the “recombinant barcode read abundance (log10)” value stood at 0.208.

Regarding “ATGAACCCTTGGGTTCTAACCTGTTGCGT (site ATGAACCCTAC)”, the “recombinant barcode read abundance (log10)” value was determined as 1.88.

Turning to “ATGAACCCTTGGGTTCTAACCTGTTGCGT (site TTGAACCCTAC)”, the “recombinant barcode read abundance (log10)” value came to 0.659.

For “ATGAAGCCTTGGGTTCTAACCTGTTGCTT (site ATCAAGCCTAA)”, the “recombinant barcode read abundance (log10)” value came out at 0.0285.

In the case of “ATGAAGCCTTGGGTTCTAACCTGTTGCTT (site ATGAAGCCTAA)”, the “recombinant barcode read abundance (log10)” value stood at 0.107.

Consider “ATGACTACTTGGGTTCTAACCTGTTGCTC (site ATGACTACTGA)”, for which the “recombinant barcode read abundance (log10)” value worked out at 0.423.

With “ATGACTACTTGGGTTCTAACCTGTTGCTC (site ATGACTACTTA)”, the “recombinant barcode read abundance (log10)” value was 0.135.

“ATGAGGTCTTGGGTTCTAACCTGTTGCTC (site ATGAGCTCTTA)”: the “recombinant barcode read abundance (log10)” value was 0.194.

On to “ATGAGGTCTTGGGTTCTAACCTGTTGCTC (site ATGAGGTCTGA)”, for which the “recombinant barcode read abundance (log10)” value stood at 1.43.

For “ATGATTACTTGGGTTCTAACCTGTTGCCT (site ATAGTTACTAG)”, the “recombinant barcode read abundance (log10)” value was 0.0836.

Turning to “ATGATTACTTGGGTTCTAACCTGTTGCCT (site ATGATTACTAG)”, the “recombinant barcode read abundance (log10)” value came out at 0.385.

On to “ATGCAACCTTGGGTTCTAACCTGTTGCCT (site ATGCAAACTAG)”, for which the “recombinant barcode read abundance (log10)” value was determined as 0.216.

In the case of “ATGCAACCTTGGGTTCTAACCTGTTGCCT (site ATGCAACCTAG)”, the “recombinant barcode read abundance (log10)” value was determined as 0.827.

As to “ATGCAACCTTGGGTTCTAACCTGTTGCCT (site ATGCAAGCTAG)”, the “recombinant barcode read abundance (log10)” value worked out at 0.362.
